Active and inactive are the calls of the source. The rule behind the calls is not given here.
Tested on: rodent carcinogenicity bioassays, tumor incidence
Assay: CCRIS carcinogenicity studies
Outline: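 Archive of carcinogenicity, mutagenicity, tumor promotion and tumor inhibition results drawn from journals, NCI reports and other sources, expert-reviewed; covers 1985-2011 and is no longer updated.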

O=[N+]([O-])c1ccc2ccc3c4ccccc4cc4ccc1c2c43
carcinogen call (Species: MOUSE, Strain/Sex: B6C3F1/MALE, Route: INTRAPERITONEAL, Dose: 0, 400 NMOL IN 35 µL DMSO ON DAYS 1 (1/7 TOTAL DOSE), 8 (2/7 TOTAL DOSE), AND 15 (4/7 TOTAL DOSE) AFTER BIRTH (STUDY DUR): inactive; negative
carcinogen call (Species: RAT, Strain/Sex: F344/MALE, Route: SUBCUTANEOUS, Dose: 0, 500, 1000 UG SUSPENDED IN BEESWAX/TRICAPRYLIN (1:1) ONCE (STUDY DURATION: LIFETIME), Dose: 0, 500, 1000 UG SUSPENDED IN BEESWAX/TRICAPRYLIN (1:1) ONCE (STUDY DURATION: LIFETIME)): inactive; negative

O=C1CCCCCN1
carcinogen call (Species: MOUSE, Strain/Sex: B6C3F1/FEMALE, Route: ORAL, Dose: 0, 7500, 15000 PPM IN DIET, Dose: 0, 7500, 15000 PPM IN DIET): inactive; negative
carcinogen call (Species: MOUSE, Strain/Sex: B6C3F1/MALE, Route: ORAL, Dose: 0, 7500, 15000 PPM IN DIET, Dose: 0, 7500, 15000 PPM IN DIET): inactive; negative
carcinogen call (Species: RAT, Strain/Sex: F344/FEMALE, Route: ORAL, Dose: 0, 3750, 7500 PPM IN DIET, Dose: 0, 3750, 7500 PPM IN DIET): inactive; negative
carcinogen call (Species: RAT, Strain/Sex: F344/MALE, Route: ORAL, Dose: 0, 3750, 7500 PPM IN DIET, Dose: 0, 3750, 7500 PPM IN DIET): inactive; negative

CN(N=O)C(CCC(=O)O)c1cccnc1 (stereo not given)
carcinogen call (Species: MOUSE, Strain/Sex: STRAIN-A/FEMALE, Route: INTRAPERITONEAL, Dose: 0, 2.23 MG 3/WK FOR 20 WK (STUDY DURATION: 50 WK)): inactive; negative
carcinogen call (Species: MOUSE, Strain/Sex: STRAIN-A/FEMALE, Route: INTRAPERITONEAL, Dose: 0, 200 UMOL MOUSE (TOTAL DOSE) ADMINISTERED IN 0.1 ML SALINE 3/WK (TOTAL 20 INJECTIONS) (STUDY DURATION: 37 WK)): inactive; negative
carcinogen call (Species: MOUSE, Strain/Sex: STRAIN-A/FEMALE, Route: INTRAPERITONEAL, Dose: 0, 200 UMOL TOTAL DOSE ADMINISTERED IN SUBDOSES 3/WK FOR 7 WK (STUDY DURATION: 37 WK)): inactive; negative

C[C@]12CC[C@@H]3c4ccc(OC(=O)c5ccccc5)cc4CC[C@H]3[C@@H]1CC[C@@H]2O
carcinogen call (Species: MOUSE, Route: SUBCUTANEOUS, Tumor Site: Type of Lesion: TESTES, PITUITARY GLAND, CERVIX, UTERUS, Tumor Site: Type of Lesion: TESTES, PITUITARY GLAND, CERVIX, UTERUS): active; positive
carcinogen call (Species: RAT, Route: SUBCUTANEOUS IMPLANT, Tumor Site: Type of Lesion: PITUITARY GLAND): active; positive

CO/N=C(/C(=O)OC)c1ccccc1COc1ccccc1C
carcinogen call (Species: Mouse, Strain/Sex: Strain not specified by Department of Pesticide Regulation /Female (50/Group), Route: Oral, Dose: 0, 81, 400, 1662 mg/kg/day of 93.7-96.6% kresoxim-methyl in diet for 18 mo, study duration 18 mo, Dose: 0, 81, 400, 1662 mg/kg/day of 93.7-96.6% kresoxim-methyl in diet for 18 mo, study duration 18 mo): inactive; negative
carcinogen call (Species: Mouse, Strain/Sex: Strain not specified by Department of Pesticide Regulation /Male (50/Group), Route: Oral, Dose: 0, 60, 304, 1305 mg/kg/day of 93.7-96.6% kresoxim-methyl in diet for 18 mo, study duration 18 mo, Dose: 0, 60, 304, 1305 mg/kg/day of 93.7-96.6% kresoxim-methyl in diet for 18 mo, study duration 18 mo): inactive; negative
carcinogen call (Species: Rat, Strain/Sex: Wistar/Female (20/Group), Route: Oral, Dose: 0, 12, 48, 503, 985 mg/kg/day of 93.7-96.6% kresoxim-methyl in diet for 24 mo, study duration 24 mo, Dose: 0, 12, 48, 503, 985 mg/kg/day of 93.7-96.6% kresoxim-methyl in diet for 24 mo, study duration 24 mo, Tumor Site: Type of Lesion: Liver: hepatocellular carcinoma (1/20, 0/20, 2/20, 6/20, 6/20)): active; positive
carcinogen call (Species: Rat, Strain/Sex: Wistar/Female (50/Group), Route: Oral, Dose: 0, 12, 47, 497, 1046 mg/kg/day of 93.7-96.6% kresoxim-methyl in diet for 24 mo, study duration 24 mo, Dose: 0, 12, 47, 497, 1046 mg/kg/day of 93.7-96.6% kresoxim-methyl in diet for 24 mo, study duration 24 mo, Tumor Site: Type of Lesion: Liver: hepatocellular carcinoma (1/50, 1/50, 2/50, 13/50, 16/50)): active; positive
carcinogen call (Species: Rat, Strain/Sex: Wistar/Male (20/Group), Route: Oral, Dose: 0, 9, 36, 370, 746 mg/kg/day of 93.7-96.6% kresoxim-methyl in diet for 24 mo, study duration 24 mo, Dose: 0, 9, 36, 370, 746 mg/kg/day of 93.7-96.6% kresoxim-methyl in diet for 24 mo, study duration 24 mo, Tumor Site: Type of Lesion: Liver: hepatocellular carcinoma (0/20, 1/20, 1/20, 3/20, 8/20)): active; positive
carcinogen call (Species: Rat, Strain/Sex: Wistar/Male (50/Group), Route: Oral, Dose: 0, 9, 36, 375, 770 mg/kg/day of 93.7-96.6% kresoxim-methyl in diet for 24 mo, study duration 24 mo, Dose: 0, 9, 36, 375, 770 mg/kg/day of 93.7-96.6% kresoxim-methyl in diet for 24 mo, study duration 24 mo, Tumor Site: Type of Lesion: Liver: hepatocellular carcinoma (7/50, 5/50, 2/50, 18/50, 11/50). Spleen: hemangiosarcoma (0/50, 0/50, 2/50, 2/50, 3/50)): active; positive

C=C(C#N)C(=O)OCC(C)C
carcinogen call (Species: RAT, Strain/Sex: F344/FEMALE, Route: IMPLANT, Dose: 0, 10, 100 µL INTO VENTRAL LIVER CAPSULE ONCE (STUDY DURATION: 2 YR), Dose: 0, 10, 100 µL INTO VENTRAL LIVER CAPSULE ONCE (STUDY DURATION: 2 YR), Tumor Site: Type of Lesion: BODY CAVITY: SARCOMA): active; positive
carcinogen call (Species: RAT, Strain/Sex: F344/MALE, Route: IMPLANT, Dose: 0, 10, 100 µL INTO VENTRAL LIVER CAPSULE ONCE (STUDY DURATION: 2 YR), Dose: 0, 10, 100 µL INTO VENTRAL LIVER CAPSULE ONCE (STUDY DURATION: 2 YR), Tumor Site: Type of Lesion: BODY CAVITY: SARCOMA): active; positive

CCOP(=S)(OCC)Oc1ccc([N+](=O)[O-])cc1
carcinogen call (Species: MOUSE, Strain/Sex: B6C3F1/FEMALE, Route: ORAL, Dose: 0, 80, 160 PPM IN DIET, Dose: 0, 80, 160 PPM IN DIET): inactive; negative
carcinogen call (Species: MOUSE, Strain/Sex: B6C3F1/MALE, Route: ORAL, Dose: 0, 80, 160 PPM IN DIET, Dose: 0, 80, 160 PPM IN DIET): inactive; negative
carcinogen call (Species: RAT, Strain/Sex: OSBORNE-MENDEL/FEMALE, Route: ORAL, Dose: 0, 23, 45 PPM IN DIET FOR 80 WK (STUDY DURATION: 112-113 WK), Dose: 0, 23, 45 PPM IN DIET FOR 80 WK (STUDY DURATION: 112-113 WK), Tumor Site: Type of Lesion: ADRENAL GLAND: CORTICAL ADENOMA OR CARCINOMA): equivocal
carcinogen call (Species: RAT, Strain/Sex: OSBORNE-MENDEL/MALE, Route: ORAL, Dose: 0, 32, 63 PPM IN DIET FOR 80 WK (STUDY DURATION: 112-113 WK), Dose: 0, 32, 63 PPM IN DIET FOR 80 WK (STUDY DURATION: 112-113 WK), Tumor Site: Type of Lesion: ADRENAL GLAND: CORTICAL ADENOMA OR CARCINOMA): equivocal

CC(=O)O[C@]1(C(C)=O)CC[C@H]2[C@@H]3C=C(Cl)C4=CC(=O)[C@@H]5C[C@@H]5[C@]4(C)[C@H]3CC[C@@]21C
carcinogen call (Species: MOUSE, Strain/Sex: C57BL/FEMALE, Route: ORAL, Dose: 0, 800 PPM IN DIET FOR 97 WK (STUDY DURATION: 97 WK), Tumor Site: Type of Lesion: LIVER: HEPATOCELLULAR ADENOMA, HEPATOCELLULAR CARCINOMA): active; positive
carcinogen call (Species: MOUSE, Strain/Sex: C57BL/MALE, Route: ORAL, Dose: 0, 800 PPM IN DIET FOR 104 WK (STUDY DURATION: 104 WK), Tumor Site: Type of Lesion: LIVER: HEPATOCELLULAR ADENOMA, HEPATOCELLULAR CARCINOMA): active; positive
carcinogen call (Species: RAT, Strain/Sex: WISTAR/MALE, Route: GAVAGE, Dose: 0, 50 MG/KG IN TAP WATER 1/D FOR 21 D (STUDY DURATION: 79 WK)): inactive; negative

CCCCCC[C@@H](O)C/C=C\CCCCCCCC(=O)O (tested in a mixture with another compound)
carcinogen call (Species: MOUSE, Strain/Sex: C57BL/FEMALE, Route: ORAL, Dose: 0, 5% IN DIET FOR 80 WKS (STUDY DURATION: 80 WKS)): inactive; negative
carcinogen call (Species: MOUSE, Strain/Sex: C57BL/MALE, Route: ORAL, Dose: 0, 5% IN DIET FOR 80 WKS (study duration: 80 WKS)): inactive; negative
carcinogen call (Species: RAT, Strain/Sex: WISTAR/FEMALE, Route: ORAL, Dose: 0, 5% IN DIET FOR 2 YR (STUDY DURATION: 2 YR)): inactive; negative
carcinogen call (Species: RAT, Strain/Sex: WISTAR/MALE, Route: ORAL, Dose: 0, 5% IN DIET FOR 2 YR (STUDY DURATION: 2 YEARS)): inactive; negative

— PubChem BioAssay AID1259411 (Chemical Carcinogenesis Research Information System (CCRIS), 2018)
